Laboratory results from ChEMBL document CHEMBL5608197, “Optimization of pyrazolopyridine 4-carboxamides with potent antimalarial activity for which resistance is associated with the P. falciparum transporter ABCI3” (Eur J Med Chem, 2024).
≈ marks a conversion by molar mass, not a printed value.

What was measured:
[1] = Ratio of EC50 for antiplasmodial activity against ring stage of Plasmodium falciparum 3D7 expressing ABCI3-HAreg in absence of ABCI3 inhibitor, GlcN to EC50 for antiplasmodial activity against ring stage of Plasmodium falciparum 3D7 expressing ABCI3-HAreg in presence of ABCI3 inhibitor, GlcN; assay type: functional
CYP3A4 = CYP3A4 (Homo sapiens, UniProt P08684); test: Inhibition of CYP3A4 (unknown origin) at 10 uM relative to control; assay type: ADME
Plasmodium falciparum [2] = test: (§1) Resistance ratio of EC50 for antiplasmodial activity against drug-resistant recrudescent Plasmodium falciparum Dd2-B2 in 2x10^5 to 2x10^6 bulk culture selection measured on day 15 under initial selection drug pressure concentration of 3XEC50 to EC50 for antiplasmodial activity against Plasmodium flaciparum Dd2-B2 measured after 72 hrs; assay type: functional
[3] = Aqueous solubility of the compound in PBS buffer at pH 7.4 at 200 uM incubated for 2 hrs under shaking condition by miniaturized shake flask method; assay type: physicochemical
Plasmodium falciparum [4] = test: Antiplasmodial activity against multidrug-resistant Plasmodium falciparum NF54 infected in erythrocytes assessed as inhibition of parasite growth incubated for 72 hrs by [3H]hypoxanthine incorporation based microbeta counting analysis; assay type: functional, organism-based; conditions: NF54, Erythrocyte
Plasmodium falciparum [5] = test: Antiplasmodial activity against multidrug-resistant Plasmodium falciparum Dd2 harboring DHODH-C276F mutant infected in erythrocytes assessed as inhibition of parasite growth incubated for 72 hrs by [3H]hypoxanthine incorporation based microbeta counting analysis; assay type: functional, organism-based; conditions: Dd2, Erythrocyte
CYP2C19 = CYP2C19 (Homo sapiens, UniProt P33261); test: Inhibition of CYP2C19 (unknown origin) at 10 uM relative to control; assay type: ADME
Plasmodium falciparum [6] = test: as §1, with “in 2x10^7” for “in 2x10^5 to 2x10^6”, “flaciparum Dd2” for “flaciparum Dd2-B2”; assay type: functional
CYP2D6 = CYP2D6 (Homo sapiens, UniProt P10635); test: Inhibition of CYP2D6 (unknown origin) at 1 uM relative to control; assay type: ADME
Plasmodium falciparum [7] = test: Antiplasmodial activity against drug-resistant Plasmodium falciparum Dd2-B2 in 2x10^5 bulk culture selection assessed as concentration required to complete parasite killing measured on day 5 under initial selection drug pressure concentration of 3XEC50 by Minimum inoculum of resistance analysis; assay type: functional; conditions: time 5 day
Plasmodium falciparum [8] = test: Antiplasmodial activity against ring stage of Plasmodium falciparum 3D7 expressing ABCI3-HAreg assessed as inhibition of parasite proliferation incubated for 72 hrs in absence of ABCI3 inhibitor, GlcN by SYBR dye based flow cytometry; assay type: functional, organism-based; conditions: 3D7, 72 h
CYP1A2 = target: T1, CYP1A2 (Homo sapiens, UniProt P05177); test: Inhibition of CYP1A2 (unknown origin) at 10 uM relative to control; assay type: ADME
T1 sequence (P05177 whole entry): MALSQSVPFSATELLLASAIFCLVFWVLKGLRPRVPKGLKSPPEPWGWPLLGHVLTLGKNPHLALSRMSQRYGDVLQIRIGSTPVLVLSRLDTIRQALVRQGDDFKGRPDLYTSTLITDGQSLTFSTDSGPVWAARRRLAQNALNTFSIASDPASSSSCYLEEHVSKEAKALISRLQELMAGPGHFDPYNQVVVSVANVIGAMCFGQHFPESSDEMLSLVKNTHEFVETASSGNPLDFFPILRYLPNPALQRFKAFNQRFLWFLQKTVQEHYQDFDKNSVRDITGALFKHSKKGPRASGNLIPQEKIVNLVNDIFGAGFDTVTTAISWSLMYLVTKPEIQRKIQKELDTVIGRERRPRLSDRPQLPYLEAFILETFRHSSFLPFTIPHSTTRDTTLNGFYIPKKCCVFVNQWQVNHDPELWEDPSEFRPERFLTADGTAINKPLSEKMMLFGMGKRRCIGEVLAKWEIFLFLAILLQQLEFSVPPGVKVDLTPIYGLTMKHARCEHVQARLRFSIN

[9] = target: Voltage-gated inwardly rectifying potassium channel KCNH2 (Homo sapiens, UniProt Q12809); test: Inhibition of hERG expressed in CHO cells by patch clamp method; assay type: toxicity, cell-based
[10] = Cytotoxicity against human HepG2 cells assessed as inhibition of cell growth incubated for 48 hrs by CellTiter-Glo luminescence assay; assay type: toxicity, cell-based
Plasmodium falciparum [11] = test: Antiplasmodial activity against ring stage of Plasmodium falciparum 3D7 expressing ABCI3-HAreg assessed as inhibition of parasite proliferation incubated for 72 hrs in presence of ABCI3 inhibitor, GlcN by SYBR dye based flow cytometry; assay type: functional, organism-based; conditions: 3D7, 72 h

Chain of CYP3A4 (P08684 whole entry): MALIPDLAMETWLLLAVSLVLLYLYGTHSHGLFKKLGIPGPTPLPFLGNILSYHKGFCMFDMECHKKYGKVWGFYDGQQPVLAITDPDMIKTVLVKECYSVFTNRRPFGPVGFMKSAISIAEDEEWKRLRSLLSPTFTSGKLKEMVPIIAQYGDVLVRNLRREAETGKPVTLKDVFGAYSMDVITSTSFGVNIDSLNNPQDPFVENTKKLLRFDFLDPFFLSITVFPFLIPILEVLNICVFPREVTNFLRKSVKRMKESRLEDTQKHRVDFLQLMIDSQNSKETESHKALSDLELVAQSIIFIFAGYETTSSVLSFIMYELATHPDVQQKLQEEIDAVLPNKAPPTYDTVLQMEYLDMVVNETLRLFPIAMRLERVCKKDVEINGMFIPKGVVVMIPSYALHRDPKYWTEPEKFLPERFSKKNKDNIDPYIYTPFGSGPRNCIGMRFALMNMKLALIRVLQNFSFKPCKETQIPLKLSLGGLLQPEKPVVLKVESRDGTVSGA
Chain of CYP2C19 (P33261 whole entry): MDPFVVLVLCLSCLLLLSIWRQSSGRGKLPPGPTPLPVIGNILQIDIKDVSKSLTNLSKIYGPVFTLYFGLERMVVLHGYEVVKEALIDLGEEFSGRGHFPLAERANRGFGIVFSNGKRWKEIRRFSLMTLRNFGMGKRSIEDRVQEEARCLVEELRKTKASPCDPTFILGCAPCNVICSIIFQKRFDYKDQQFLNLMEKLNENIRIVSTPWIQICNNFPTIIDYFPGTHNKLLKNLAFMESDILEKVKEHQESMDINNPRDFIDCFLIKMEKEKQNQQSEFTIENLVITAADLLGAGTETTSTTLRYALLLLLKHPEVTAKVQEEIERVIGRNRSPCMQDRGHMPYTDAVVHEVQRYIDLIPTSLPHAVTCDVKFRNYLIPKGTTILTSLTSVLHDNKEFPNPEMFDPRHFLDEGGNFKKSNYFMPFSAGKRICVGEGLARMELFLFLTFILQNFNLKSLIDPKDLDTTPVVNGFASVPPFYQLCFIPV
Chain of CYP2D6 (P10635 whole entry): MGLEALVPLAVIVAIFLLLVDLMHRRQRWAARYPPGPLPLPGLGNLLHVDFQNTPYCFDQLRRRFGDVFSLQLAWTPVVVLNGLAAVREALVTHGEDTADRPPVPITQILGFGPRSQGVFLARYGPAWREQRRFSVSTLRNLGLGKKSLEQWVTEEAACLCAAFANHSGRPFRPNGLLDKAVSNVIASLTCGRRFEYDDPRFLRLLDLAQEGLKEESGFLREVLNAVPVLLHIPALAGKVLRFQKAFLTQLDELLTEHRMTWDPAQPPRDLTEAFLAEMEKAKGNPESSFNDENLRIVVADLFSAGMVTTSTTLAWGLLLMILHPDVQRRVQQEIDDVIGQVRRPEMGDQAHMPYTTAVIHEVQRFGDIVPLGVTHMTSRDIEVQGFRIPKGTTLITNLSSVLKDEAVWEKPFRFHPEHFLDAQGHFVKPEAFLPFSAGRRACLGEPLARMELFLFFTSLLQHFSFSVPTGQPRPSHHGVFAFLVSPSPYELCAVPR
Chain of Voltage-gated inwardly rectifying potassium channel KCNH2 (Q12809 whole entry): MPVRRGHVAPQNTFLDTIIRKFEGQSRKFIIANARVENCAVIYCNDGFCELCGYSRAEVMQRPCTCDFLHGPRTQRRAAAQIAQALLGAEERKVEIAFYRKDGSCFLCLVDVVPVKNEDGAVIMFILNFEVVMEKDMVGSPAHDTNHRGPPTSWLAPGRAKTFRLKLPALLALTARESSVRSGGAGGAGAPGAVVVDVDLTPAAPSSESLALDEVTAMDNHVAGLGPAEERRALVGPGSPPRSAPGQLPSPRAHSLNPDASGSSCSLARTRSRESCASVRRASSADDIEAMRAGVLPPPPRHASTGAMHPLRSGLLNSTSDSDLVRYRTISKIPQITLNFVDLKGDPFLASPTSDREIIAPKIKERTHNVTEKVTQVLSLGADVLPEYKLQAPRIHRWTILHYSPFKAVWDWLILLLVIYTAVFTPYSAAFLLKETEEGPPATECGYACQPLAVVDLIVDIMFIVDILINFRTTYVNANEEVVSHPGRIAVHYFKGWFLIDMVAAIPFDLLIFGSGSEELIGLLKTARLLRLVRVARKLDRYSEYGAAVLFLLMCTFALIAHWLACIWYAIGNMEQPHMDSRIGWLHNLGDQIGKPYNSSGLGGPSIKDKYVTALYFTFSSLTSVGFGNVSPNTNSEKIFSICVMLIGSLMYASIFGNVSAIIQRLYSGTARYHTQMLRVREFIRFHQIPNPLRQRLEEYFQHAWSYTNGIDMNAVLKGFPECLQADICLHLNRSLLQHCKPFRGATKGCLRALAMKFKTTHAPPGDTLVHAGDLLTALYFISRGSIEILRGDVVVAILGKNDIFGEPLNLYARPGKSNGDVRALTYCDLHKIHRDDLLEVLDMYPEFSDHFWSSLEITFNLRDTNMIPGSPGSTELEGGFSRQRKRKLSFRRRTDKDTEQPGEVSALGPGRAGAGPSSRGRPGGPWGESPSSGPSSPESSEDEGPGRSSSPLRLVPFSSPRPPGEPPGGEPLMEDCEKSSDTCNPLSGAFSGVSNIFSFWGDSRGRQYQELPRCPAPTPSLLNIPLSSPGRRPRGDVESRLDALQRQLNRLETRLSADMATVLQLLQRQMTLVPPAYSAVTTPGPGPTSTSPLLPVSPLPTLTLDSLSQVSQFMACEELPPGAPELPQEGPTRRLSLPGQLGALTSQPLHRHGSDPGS

For Cc1nn(C(C)(C)C)c2nc(C3CC3)cc(C(=O)N3CCOc4ccncc43)c12, the “Ratio EC50” value [1] was 3.4, the inhibition at 10 µM (CYP3A4) was 90.5% and the Ratio EC50 (Plasmodium falciparum [2]) was 3. The solubility thermodynamic at 2 h, 200 µM [3] was 69 µM (≈ 27 µg/mL), the EC50 (Plasmodium falciparum [4]) was 3 nM and the EC50 (Plasmodium falciparum [5]) was 7 nM. The inhibition at 10 µM (CYP2C19) was 17.4%, the Ratio EC50 (Plasmodium falciparum [6]) was 5 and the inhibition at 1 µM (CYP2D6) was 43.8%. For the same compound, the Activity (Plasmodium falciparum [7]) was 28 nM, the EC50 (Plasmodium falciparum [8]) was 2.7 nM and the inhibition at 10 µM (CYP1A2) was 55.1%. It also gave an EC50 [9] of 16700 nM, a CC50 at 48 h [10] of 4810 nM and an EC50 (Plasmodium falciparum [11]) of 0.8 nM.
